Reference: ChEMBL document CHEMBL4715865, “Antimyeloma Potential of Caffeic Acid Phenethyl Ester and Its Analogues through Sp1 Mediated Downregulation of IKZF1-IRF4-MYC Axis” (J Nat Prod, 2020)
pIC50: −log10 of the molar value. Calls of active or inactive are those of the source. The rule behind the calls is not given here.

What was measured:
KMM-1 [1] = assay: (§1) Growth inhibition of human KMM-1 cells at 10 uM after 48 hrs by PrestoBlue cell viability assay relative to control; assay type: functional
[2] = Induction of apoptosis in human KMM-1 cells assessed as necrotic cells at 10 uM after 72 hrs by Annexin V/PropidiumIodide staining based flow cytometric analysis (reference value: 8 +/-1%); assay type: functional
JJN-3 [3] = assay: Down regulation of IKZF1 protein expression in human JJN-3 cells at 10 to 50 uM after 48 hrs by immunoblotting analysis; assay type: functional, cell-based; settings: dose 10-50 µM
[4] = as §1; assay type: functional; settings: read-out: GI
[5] = Induction of apoptosis in human KMM-1 cells assessed as viable cells at 10 uM after 72 hrs by Annexin V/PropidiumIodide staining based flow cytometric analysis (reference value: 87 +/- 1%); assay type: functional; settings: read-out: Activity
[6] = Growth inhibition of human MM1.R cells at 100 uM after 48 hrs by PrestoBlue cell viability assay relative to control; assay type: functional; settings: MM.1R, read-out: GI
MM.1R [7] = assay: Down regulation of IKZF3 protein expression in human MM1.R cells at 10 to 50 uM after 48 hrs by immunoblotting analysis; assay type: functional, cell-based; settings: dose 10-50 µM
MM.1R [8] = assay: Down regulation of IRF4 protein expression in human MM1.R cells at 10 to 50 uM after 48 hrs by immunoblotting analysis; assay type: functional, cell-based; settings: dose 10-50 µM
[9] = Induction of apoptosis in human KMM-1 cells assessed as late apoptotic cells at 10 uM after 72 hrs by Annexin V/PropidiumIodide staining based flow cytometric analysis (reference value: 4 +/- 0.5%); assay type: functional
[10] = Induction of apoptosis in human MM1.R cells assessed as apoptotic cells at 10 uM after 72 hrs by Annexin V/PropidiumIodide staining based flow cytometric analysis relative to control; assay type: functional, MM.1R
[11] = Induction of apoptosis in human KMM-1 cells assessed as early apoptotic cells at 10 uM after 72 hrs by Annexin V/PropidiumIodide staining based flow cytometric analysis (reference value: 1 +/- 0.4%); assay type: functional
JJN-3 [12] = assay: Down regulation of IRF4 protein expression in human JJN-3 cells at 10 to 50 uM after 48 hrs by immunoblotting analysis; assay type: functional, cell-based; settings: dose 10-50 µM
B cell = assay: Cytotoxicity against human naive B cells assessed as reduction in cll viability at 10 uM after 48 hrs by PrestoBlue cell viability assay; assay type: cell-based
[13] = Growth inhibition of human KMM-1 cells at 10 to 100 uM after 72 hrs by PrestoBlue cell viability assay relative to control; assay type: functional; settings: dose 10-100 µM
MM.1R [14] = assay: Down regulation of IKZF1 protein expression in human MM1.R cells at 10 to 50 uM after 48 hrs by immunoblotting analysis; assay type: functional, cell-based; settings: dose 10-50 µM
[15] = Cytotoxicity against human Mononuclear cells assessed as reduction in cll viability at 10 uM after 48 hrs by PrestoBlue cell viability assay; assay type: cell-based; settings: mononuclear cell line
[16] = Induction of apoptosis in human KMM-1 cells assessed as apoptotic cells at 10 uM after 72 hrs by Annexin V/PropidiumIodide staining based flow cytometric analysis relative to control; assay type: functional
[17] = Induction of apoptosis in human KMM-1 cells assessed as increase in cleaved caspace-3 expression at 50 uM after 48 hrs by immunoblotting analysis; assay type: functional
KMM-1 [18] = assay: Growth inhibition of human KMM-1 cells at 1 to 10 uM after 48 hrs by PrestoBlue cell viability assay; assay type: functional, cell-based; settings: dose 1-10 µM
KMM-1 [19] = assay: Down regulation of cyclin D3 expression in human KMM-1 cells at 5 to 50 uM after 48 hrs by immunoblotting analysis; assay type: functional, cell-based; settings: dose 5-50 µM
MM.1R [20] = assay: Down regulation of SP1 protein expression in human MM1.R cells at 10 uM after 48 hrs by immunoblotting analysis; assay type: functional, cell-based
MM.1R [21] = assay: Down regulation of MYC protein expression in human MM1.R cells at 10 uM after 48 hrs by immunoblotting analysis; assay type: functional, cell-based
[22] = Growth inhibition of human MM1.R cells after 48 hrs by PrestoBlue cell viability assay; assay type: functional; settings: MM.1R
MM.1R [23] = assay: Induction of apoptosis in human MM1.R cells assessed as increase in cleaved caspace-8 protein expression at 10 uM after 48 hrs by immunoblotting analysis; assay type: functional, cell-based
JJN-3 [24] = assay: Growth inhibition of human JJN-3 cells after 48 hrs by PrestoBlue cell viability assay; assay type: functional, cell-based; settings: JJN-3, 48 h
[25] = Potency index, ratio of lenalidomide IC50 to test compound IC50 for growth inhibition of human KMM-1 cells; assay type: functional
[26] = Growth inhibition of human KMM-1 cells after 48 hrs by PrestoBlue cell viability assay; assay type: functional, cell-based; settings: KMM-1, 48 h

O=C(/C=C/c1ccc(O)cc1O)OCCCc1ccccc1
growth inhibition (GI) (KMM-1 [1]): inactive

O=C(/C=C/c1cccc(O)c1O)OCCCc1ccccc1
growth inhibition (GI) (KMM-1 [1]): inactive

Nc1cccc2c1CN(C1CCC(=O)NC1=O)C2=O (stereo unspecified) [LENALIDOMIDE]
Activity [2]: 12% | Activity (JJN-3 [3]): Active | inhibition of growth at 10 µM [4]: 7.5% | viability at 10 µM [5]: 78% | inhibition of growth at 100 µM [6]: 47% | Activity (MM.1R [7]): inactive | Activity (MM.1R [8]): inactive | Activity [9]: 6% | Activity [10]: 46% | Activity [11]: 4% | Activity (JJN-3 [12]): Active | Activity (B cell): Non-Toxic | growth inhibition (GI) [13]: >25% | Activity (MM.1R [14]): Active | Activity [15]: Non-Toxic | Activity [16]: 17.4%

COc1cc(/C=C/C(=O)OCCCc2ccccc2)ccc1O
growth inhibition (GI) (KMM-1 [1]): inactive

O=C(/C=C/c1ccc(O)c(O)c1)OCCC1CCCCC1
fold change (FC) [17]: 3.2 | growth inhibition (GI) (KMM-1 [18]): Active

O=C(O)/C=C/c1ccc(O)c(O)c1
Activity (KMM-1 [19]): inactive | growth inhibition (GI) (KMM-1 [18]): inactive

COc1cc(/C=C/C(=O)OCCCc2ccccc2)cc(OC)c1O
growth inhibition (GI) (KMM-1 [1]): inactive

Oc1ccc(/C=C/COCCCc2ccccc2)cc1O
Activity (MM.1R [20]): inactive | Activity (MM.1R [21]): inactive | pIC50 [22]: 5.70 | Activity (MM.1R [23]): Active | pIC50 (JJN-3 [24]): 4.85 | Ratio IC50 [25]: 6.5 | pIC50 [26]: 5.18
